According to US9783527B2, “Indazole ureas and method of use” (AbbVie Inc., priority 2014, dated 2017):
pIC50: −log10 of the molar value.

Legend:
[1] = test system: MIA-induced osteoarthritic pain in rats; assay: Osteoarthritic (OA) pain induced by sodium monoiodoacetate (MIA), hind limb grip force; assay type: in vivo, rat; details: male Sprague Dawley rats, grip force 20 days after MIA injection
Procedure: Osteoarthritic (OA) Pain Induced by Sodium Monoiodoacetate (MIA)
Pain behavior was assessed by measurement of hind limb grip force (GF) in adult osteoarthritic rats. Male Sprague Dawley rats, obtained from Charles River Laboratories, (Wilmington, Mass.), weighing 150-175 g, were injected in the unilateral knee join with a single intra-articular injection of sodium monoiodoacetate (MIA, 3 mg/rat). All rats were tested at 20 days following MIA injection. A behavioral measure of activity-induced pain was carried out. Measurements of the peak hind limb grip force were conducted by recording the maximum compressive force (CFmax), in grams of force, exerted on a hind limb strain gauge setup, in a commercially available grip force measurement system (Columbus Instruments, Columbus, Ohio).
During testing, each rat was gently restrained by grasping it around its rib cage and then allowed to grasp the wire mesh frame attached to the strain gauge. The experimenter then moved the animal in a rostral-to-caudal direction until the grip was broken. Each rat was sequentially tested twice at an approximately 2-3 minute interval to obtain a raw mean grip force (CFmax). This raw mean grip force data was in turn converted to a maximum hindlimb cumulative compressive force (CFmax), as the grams of force/kg of body weight, for each animal.
For evaluating the compound effects, the hind limb grip force was conducted 20 days following the intra-articular injection of MIA. A group of age-matched nave (not injected with MIA) animals was added as a comparator to the drug-dosed groups. The vehicle control response for each group of MIA-treated animals was defined as the 0% response (0% effect), whereas the nave control group was defined as the normal response and as 100% effect. The % effect for each dose group was expressed as % return of response to normalcy, compared to the nave group. A percent maximal possible effect (% MPE) of testing compound was calculated according to the formula: (Treatment CFmax−Vehicle CFmax)/Vehicle CFmax]×100). Higher % effect numbers indicate increased relief from the pain in the model, with 100% indicating a return to the level of response seen in normal (non-osteoarthritic) animals. All experiments evaluating drug effects in this model were conducted in a randomized blinded fashion.
The animals were housed in Association for Assessment and Accreditation of Laboratory Animal Care (AAALAC) approved facilities at AbbVie Inc. in a temperature-regulated environment under a controlled 12-hour light-dark cycle, with lights on at 6:00 a.m. Food and water were available ad libitum at all times except during testing. All testing was done following procedures outlined in protocols approved by AbbVie Inc.'s Institutional Animal Care and Use Committee.

human Nav1.8 = human Nav1.8 (Homo sapiens (Human), UniProt Q9Y5Y9); assay: FRET-based membrane potential assay, recombinant human sodium channel Nav1.8; assay type: cell-based; details: HEK293 cells stably expressing recombinant human Nav1.8; depolarization with veratridine (EC80) + scorpion venom
In short: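 HEK293 cells stably expressing Nav1.8 were loaded with CC2-DMPE/DiSBAC2(3) FRET voltage dyes. Compounds were added 3 min before depolarization with EC80 veratridine plus scorpion venom. The F440-480/F565-625 ratio was read on FLIPR; IC50 came from four-parameter Hill fits.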

human Nav1.7 = human Nav1.7 (Homo sapiens (Human), UniProt Q15858); assay: FRET-based membrane potential assay, recombinant human sodium channel Nav1.7; assay type: cell-based; details: HEK293 cells stably expressing recombinant human Nav1.7; depolarization with veratridine (EC80) + scorpion venom
In short: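 IC50 derived by four-parameter Hill fit of percent inhibition of depolarization, measured as peak F440-480/F565-625 ratio over baseline. Stable human Nav1.7 HEK293 cells, dye-loaded with CC2-DMPE and DiSBAC2(3)/VABSC-1 at room temperature, received compound 3 min ahead of veratridine (EC80) plus scorpion venom.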

human Nav1.7, sequence (Q15858 whole entry): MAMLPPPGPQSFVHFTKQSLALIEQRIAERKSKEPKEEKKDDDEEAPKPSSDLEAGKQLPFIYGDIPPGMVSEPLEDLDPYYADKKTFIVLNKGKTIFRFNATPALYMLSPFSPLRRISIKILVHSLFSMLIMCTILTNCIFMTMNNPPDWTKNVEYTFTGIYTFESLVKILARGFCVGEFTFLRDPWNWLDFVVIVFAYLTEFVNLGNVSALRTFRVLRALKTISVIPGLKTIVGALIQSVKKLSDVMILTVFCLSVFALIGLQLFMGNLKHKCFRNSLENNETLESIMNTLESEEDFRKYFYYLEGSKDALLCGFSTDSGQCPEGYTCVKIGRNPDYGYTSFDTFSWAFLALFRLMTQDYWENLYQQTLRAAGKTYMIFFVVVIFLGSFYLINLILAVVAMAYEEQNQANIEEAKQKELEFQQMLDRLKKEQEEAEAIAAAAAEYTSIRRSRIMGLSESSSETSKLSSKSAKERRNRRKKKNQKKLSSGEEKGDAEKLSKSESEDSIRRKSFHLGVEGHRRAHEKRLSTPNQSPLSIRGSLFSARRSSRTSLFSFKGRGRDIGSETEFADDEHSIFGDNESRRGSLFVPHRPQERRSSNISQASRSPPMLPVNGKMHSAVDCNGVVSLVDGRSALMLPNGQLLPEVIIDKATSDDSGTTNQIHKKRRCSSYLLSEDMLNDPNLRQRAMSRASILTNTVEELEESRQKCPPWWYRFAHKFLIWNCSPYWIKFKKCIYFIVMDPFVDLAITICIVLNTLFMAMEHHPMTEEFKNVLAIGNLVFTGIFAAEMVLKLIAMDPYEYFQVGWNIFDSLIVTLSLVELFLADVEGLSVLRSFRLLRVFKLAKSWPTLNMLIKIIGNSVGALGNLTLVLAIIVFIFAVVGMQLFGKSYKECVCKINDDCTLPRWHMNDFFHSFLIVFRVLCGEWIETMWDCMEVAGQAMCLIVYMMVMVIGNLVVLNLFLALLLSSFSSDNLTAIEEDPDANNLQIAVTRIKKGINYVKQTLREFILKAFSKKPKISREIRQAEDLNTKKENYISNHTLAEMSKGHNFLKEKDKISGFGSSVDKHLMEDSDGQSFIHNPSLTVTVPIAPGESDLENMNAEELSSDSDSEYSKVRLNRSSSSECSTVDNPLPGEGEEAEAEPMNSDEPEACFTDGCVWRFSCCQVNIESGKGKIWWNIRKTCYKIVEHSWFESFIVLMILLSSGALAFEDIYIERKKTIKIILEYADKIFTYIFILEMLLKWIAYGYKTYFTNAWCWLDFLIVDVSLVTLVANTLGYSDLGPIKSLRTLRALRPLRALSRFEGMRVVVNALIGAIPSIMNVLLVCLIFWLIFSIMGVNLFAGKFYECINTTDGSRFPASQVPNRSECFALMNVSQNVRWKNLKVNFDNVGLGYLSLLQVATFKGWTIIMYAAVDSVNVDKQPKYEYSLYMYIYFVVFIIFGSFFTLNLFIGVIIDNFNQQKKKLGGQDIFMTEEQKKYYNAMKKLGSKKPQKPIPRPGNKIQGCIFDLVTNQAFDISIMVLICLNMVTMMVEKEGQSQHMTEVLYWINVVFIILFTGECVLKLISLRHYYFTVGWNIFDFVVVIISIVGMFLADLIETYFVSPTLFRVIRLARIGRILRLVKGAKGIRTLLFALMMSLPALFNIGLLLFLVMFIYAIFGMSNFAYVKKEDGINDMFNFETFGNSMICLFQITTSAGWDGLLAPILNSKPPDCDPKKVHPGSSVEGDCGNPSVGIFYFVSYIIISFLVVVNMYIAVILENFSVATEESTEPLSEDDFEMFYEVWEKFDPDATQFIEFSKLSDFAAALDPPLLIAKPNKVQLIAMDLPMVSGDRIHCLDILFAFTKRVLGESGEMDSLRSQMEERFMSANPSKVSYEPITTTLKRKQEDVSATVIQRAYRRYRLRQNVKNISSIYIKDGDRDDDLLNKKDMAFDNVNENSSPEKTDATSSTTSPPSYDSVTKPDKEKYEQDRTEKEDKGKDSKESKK
human Nav1.8, sequence (Q9Y5Y9 whole entry): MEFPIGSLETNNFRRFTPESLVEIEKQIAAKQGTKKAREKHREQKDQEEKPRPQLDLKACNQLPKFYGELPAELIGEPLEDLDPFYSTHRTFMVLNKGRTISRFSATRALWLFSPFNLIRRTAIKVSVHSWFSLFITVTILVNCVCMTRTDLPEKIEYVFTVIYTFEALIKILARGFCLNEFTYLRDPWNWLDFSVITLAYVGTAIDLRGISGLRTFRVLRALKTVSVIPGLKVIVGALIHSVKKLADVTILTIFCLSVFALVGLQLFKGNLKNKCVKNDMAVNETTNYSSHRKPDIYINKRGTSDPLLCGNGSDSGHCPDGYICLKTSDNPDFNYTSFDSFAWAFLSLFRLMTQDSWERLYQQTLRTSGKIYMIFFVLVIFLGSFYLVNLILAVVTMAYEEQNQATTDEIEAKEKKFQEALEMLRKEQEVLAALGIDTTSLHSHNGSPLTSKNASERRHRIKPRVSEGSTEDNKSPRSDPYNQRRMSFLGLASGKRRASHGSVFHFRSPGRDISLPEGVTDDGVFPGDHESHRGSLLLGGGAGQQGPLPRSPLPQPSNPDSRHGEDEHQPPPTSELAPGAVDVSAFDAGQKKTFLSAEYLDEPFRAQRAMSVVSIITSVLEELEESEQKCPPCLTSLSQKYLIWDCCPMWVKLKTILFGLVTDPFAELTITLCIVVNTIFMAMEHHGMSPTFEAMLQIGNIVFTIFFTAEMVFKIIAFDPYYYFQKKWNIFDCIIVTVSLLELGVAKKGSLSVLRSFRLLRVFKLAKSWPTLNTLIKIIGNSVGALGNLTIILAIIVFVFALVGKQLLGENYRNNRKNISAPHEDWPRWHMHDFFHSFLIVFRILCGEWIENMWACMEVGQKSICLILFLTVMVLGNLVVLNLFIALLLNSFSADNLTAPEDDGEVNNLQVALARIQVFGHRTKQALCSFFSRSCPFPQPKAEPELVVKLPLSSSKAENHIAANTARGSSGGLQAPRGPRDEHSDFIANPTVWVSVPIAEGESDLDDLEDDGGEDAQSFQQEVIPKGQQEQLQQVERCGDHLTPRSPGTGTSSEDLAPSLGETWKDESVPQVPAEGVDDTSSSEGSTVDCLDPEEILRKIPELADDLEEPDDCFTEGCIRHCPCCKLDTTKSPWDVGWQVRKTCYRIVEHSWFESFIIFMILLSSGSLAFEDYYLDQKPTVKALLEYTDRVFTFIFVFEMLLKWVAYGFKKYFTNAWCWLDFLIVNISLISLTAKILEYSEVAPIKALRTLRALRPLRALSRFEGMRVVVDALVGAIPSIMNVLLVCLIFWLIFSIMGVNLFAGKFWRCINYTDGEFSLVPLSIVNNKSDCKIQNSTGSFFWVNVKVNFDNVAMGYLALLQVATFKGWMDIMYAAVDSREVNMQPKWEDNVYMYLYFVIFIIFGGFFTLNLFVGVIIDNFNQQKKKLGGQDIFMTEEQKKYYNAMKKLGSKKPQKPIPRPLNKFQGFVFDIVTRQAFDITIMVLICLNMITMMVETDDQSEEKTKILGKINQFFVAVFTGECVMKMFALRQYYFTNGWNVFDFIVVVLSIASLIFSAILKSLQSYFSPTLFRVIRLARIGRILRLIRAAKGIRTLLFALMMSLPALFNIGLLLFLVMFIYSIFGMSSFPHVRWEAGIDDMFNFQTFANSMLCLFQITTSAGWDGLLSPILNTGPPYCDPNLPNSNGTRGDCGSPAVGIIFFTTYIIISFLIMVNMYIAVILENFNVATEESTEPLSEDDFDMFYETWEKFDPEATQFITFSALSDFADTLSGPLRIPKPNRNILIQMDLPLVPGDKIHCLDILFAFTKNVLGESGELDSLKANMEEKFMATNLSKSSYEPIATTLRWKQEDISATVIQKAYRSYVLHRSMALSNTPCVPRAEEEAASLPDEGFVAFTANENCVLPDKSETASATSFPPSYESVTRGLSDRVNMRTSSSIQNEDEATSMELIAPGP

Row | Compound | OA MPE (%) ([1]; OA dose 10 mg/kg) | pIC50 (human Nav1.8) | pIC50 (human Nav1.7) | OA MPE (%) ([1]; OA dose 30 mg/kg)
1 | CCOc1nnc(CN2CCN(c3cccc4c3cnn4-c3ccccc3F)C2=O)s1 [Example 47, 1-[(5-ethoxy-1,3,4-thiadiazol-2-yl)methyl]-3-[1-(2-fluorophenyl)-1H-indazol-4-yl]imidazolidin-2-one] | 19% | 5.40 | 5.83 | 
2 | Cc1cccc(-n2ncc3c(N4CCN(CC(=O)N5CC[C@H](F)C5)C4=O)cccc32)c1 [Example 56, 1-{2-[(3S)-3-fluoropyrrolidin-1-yl]-2-oxoethyl}-3-[1-(3-methylphenyl)-1H-indazol-4-yl]imidazolidin-2-one] |  | 5.33 | 5.74 | 70%
3 | CC1(NC(=O)CN2CCN(c3cccc4c3cnn4-c3ccccc3F)C2=O)CC1 [Example 333, 2-{3-[1-(2-fluorophenyl)-1H-indazol-4-yl]-2-oxoimidazolidin-1-yl}-N-(1-methylcyclopropyl)acetamide] |  | 5.32 | 5.62 | 86%
4 | O=C1N(c2cccc3c2cnn3-c2ccccc2F)CCN1[C@@H]1CCOC1 [Example 32, 1-[1-(2-fluorophenyl)-1H-indazol-4-yl]-3-[(3R)-tetrahydrofuran-3-yl]imidazolidin-2-one] |  | 5.60 | 5.37 | 65%
5 | O=C1N(CC(=O)N2C[C@H]3C[C@@H]2CO3)CCN1c1cccc2c1cnn2-c1ccccc1F [Example 25, 1-[1-(2-fluorophenyl)-1H-indazol-4-yl]-3-{2-[(1R,4R)-2-oxa-5-azabicyclo[2.2.1]hept-5-yl]-2-oxoethyl}imidazolidin-2-one] | 24% | 5.07 | 6.30 | 
6 | O=C(CN1CCN(c2cccc3c2cnn3-c2ccccc2F)C1=O)NC1(CO)CCC1 [Example 316, 2-{3-[1-(2-fluorophenyl)-1H-indazol-4-yl]-2-oxoimidazolidin-1-yl}-N-[1-(hydroxymethyl)cyclobutyl]acetamide] |  | 5.78 | 5.51 | 63%
7 | O=C1N(Cc2nnc(C3CC3)o2)CCN1c1cccc2c1cnn2-c1ccccc1F [Example 49, 1-[(5-cyclopropyl-1,3,4-oxadiazol-2-yl)methyl]-3-[1-(2-fluorophenyl)-1H-indazol-4-yl]imidazolidin-2-one] | 66% | 6.27 | 5.63 | 
8 | Cc1nc(CN2CCCN(c3cccc4c3cnn4-c3ccccc3F)C2=O)oc1C [Example 48, 1-[(4,5-dimethyl-1,3-oxazol-2-yl)methyl]-3-[1-(2-fluorophenyl)-1H-indazol-4-yl]tetrahydropyrimidin-2(1H)-one] | 20% | 5.94 | 5.70 | 
9 | O=C1N(Cc2nccs2)CCN1c1cccc2c1cnn2-c1ccccc1F [Example 34, 1-[1-(2-fluorophenyl)-1H-indazol-4-yl]-3-(1,3-thiazol-2-ylmethyl)imidazolidin-2-one] | 43% |  | 6.38 | 
10 | O=C1N(CC(=O)N2C[C@@H]3C[C@H]2CO3)CCN1c1cccc2c1cnn2-c1ccccc1F [Example 16, 1-[1-(2-fluorophenyl)-1H-indazol-4-yl]-3-{2-[(1S,4S)-2-oxa-5-azabicyclo[2.2.1]hept-5-yl]-2-oxoethyl}imidazolidin-2-one] |  |  | 6.13 | 67%
11 | O=C1N(c2ncccn2)CCN1c1cccc2c1cnn2-c1ccccc1F [Example 28, 1-[1-(2-fluorophenyl)-1H-indazol-4-yl]-3-(pyrimidin-2-yl)imidazolidin-2-one] | 62% |  | 6.34 | 
12 | CCC1(O)CN(C(=O)CN2CCN(c3cccc4c3cnn4-c3ccccc3F)C2=O)C1 [Example 205, 1-[2-(3-ethyl-3-hydroxyazetidin-1-yl)-2-oxoethyl]-3-[1-(2-fluorophenyl)-1H-indazol-4-yl]imidazolidin-2-one] |  | 5.82 | 6.11 | 46%
13 | CCS(=O)(=O)N1CC(N2CCN(c3cccc4c3cnn4-c3ccccc3F)C2=O)C1 [Example 51, 1-[1-(ethylsulfonyl)azetidin-3-yl]-3-[1-(2-fluorophenyl)-1H-indazol-4-yl]imidazolidin-2-one] |  | 5.94 | 5.51 | 16%
14 | O=C1N(Cc2cscn2)CCN1c1cccc2c1cnn2-c1ccccc1F [Example 39, 1-[1-(2-fluorophenyl)-1H-indazol-4-yl]-3-(1,3-thiazol-4-ylmethyl)imidazolidin-2-one] | 38% |  | 6.52 | 
15 | O=C1N(Cc2nnco2)CCN1c1cccc2c1cnn2-c1ccccc1F [Example 29, 1-[1-(2-fluorophenyl)-1H-indazol-4-yl]-3-(1,3,4-oxadiazol-2-ylmethyl)imidazolidin-2-one] | 46% |  | 5.66 | 
16 | CC(C)(C)C(O)CN1CCN(c2cccc3c2cnn3-c2ccccc2F)C1=O (stereo not drawn) [Example 22, 1-[1-(2-fluorophenyl)-1H-indazol-4-yl]-3-(2-hydroxy-3,3-dimethylbutyl)imidazolidin-2-one] |  |  | 5.52 | 38%
17 | O=C(CN1CCN(c2cccc3c2cnn3-c2ccccc2)C1=O)N1CC[C@H](F)C1 [Example 307, 1-{2-[(3S)-3-fluoropyrrolidin-1-yl]-2-oxoethyl}-3-(1-phenyl-1H-indazol-4-yl)imidazolidin-2-one] |  | 5.85 | 6.28 | 62%
18 | O=C1N(Cc2cnccn2)CCN1c1cccc2c1cnn2-c1ccccc1F [Example 35, 1-[1-(2-fluorophenyl)-1H-indazol-4-yl]-3-(pyrazin-2-ylmethyl)imidazolidin-2-one] | 19% |  | 6.13 | 
19 | O=C(CN1CCN(c2cccc3c2cnn3-c2ccccc2F)C1=O)N1CCC[C@@H](O)C1 [Example 52, 1-[1-(2-fluorophenyl)-1H-indazol-4-yl]-3-{2-[(3R)-3-hydroxypiperidin-1-yl]-2-oxoethyl}imidazolidin-2-one] |  | 5.00 | 5.60 | 27%
20 | O=C1N(Cc2nnc(C3CCC3)o2)CCN1c1cccc2c1cnn2-c1ccccc1F [Example 50, 1-[(5-cyclobutyl-1,3,4-oxadiazol-2-yl)methyl]-3-[1-(2-fluorophenyl)-1H-indazol-4-yl]imidazolidin-2-one] | 7% | 5.51 | 5.82 | 
21 | CCc1cc(CN2CCN(c3cccc4c3cnn4-c3ccccc3F)C2=O)on1 [Example 45, 1-[(3-ethyl-1,2-oxazol-5-yl)methyl]-3-[1-(2-fluorophenyl)-1H-indazol-4-yl]imidazolidin-2-one] | 43% |  | 5.95 | 
22 | O=C1N(c2cccnc2)CCN1c1cccc2c1cnn2-c1ccccc1F [Example 19, 1-[1-(2-fluorophenyl)-1H-indazol-4-yl]-3-(pyridin-3-yl)imidazolidin-2-one] | 67% |  | 5.53 | 
